The values below come from US20090123940A1, “MOLECULES INVOLVED IN SYNAPTOGENESIS AND USES THEREFOR” (THE JOHNS HOPKINS UNIVERSITY, priority 2007, published 2009).

Experiment [1] relates to surface GluR1 / surface LFC-NPR. Nature of the experiment: Cell surface biotinylation of cultured cortical neurons. The experiment is classed as cell-based. The note with it: for surface LFC-NPR: cultured cortical neurons after DHPG treatment. The protocol: Cell Surface Biotinylation. Surface biotinylation of GluR1 at the plasma membrane was described previously (Snyder et al., Nat Neurosci 4:1079-85, 2001) with some modifications. Cultured cortical neurons were treated with DHPG for 5 minutes. Medium was then replaced with previously cultured medium. After 45 minutes, neurons were cooled on ice and washed with cold PBS containing 1 mM CaCl2 and 0.5 mM MgCl2 (PBS++). Cell surface proteins were labeled with cell-impermeable EZ-Link Sulfo-NHS-SS-Biotin (sulfosuccinimidyl-2-(biotinamido)ethyl-1,3-dithiopropionate; Pierce) in PBS^++ (1 mg/mL) at 4° C. for 30 min. Unreacted biotin was quenched by washing cells with cold 100 mM Glycine (pH 7.4). Cultures were lysed using RIPA buffer and homogenates were centrifuged at 13, 200 rpm to remove debris. 10% of the homogenates were used for total protein. 90% of the remaining homogenates were incubated with immobilized NeutrAvidin beads (Pierce). After washing with RIPA buffer, bound proteins were eluted with 2× Laemmli sample buffer supplemented with 2% β-ME. The eluted proteins were subjected to SDS-PAGE and Western blotting followed by ECL (Amersham Biosciences) and exposure to autoradiography film. Primary antibody concentrations were as follows: GluR1N at 0.12 μg/mL and β-actin at 1:1000. Quantification performed on digital images scanned from exposure matched autoradiographs. Densitometric analysis of these digital images was performed using ImageJ software (Version 1.33, National Institutes of Health). Significance was determined by paired Student's T-test.

In experiment [2] the test system is LFC-NPR (TACE cleavage of NPR). Nature of the experiment: Western blot of LFC-NPR in lysates of cultured cortical neurons after DHPG. The experiment is classed as cell-based. On the procedure: Cell Culture, Transfection, Western Blot Analysis, and Co-immunoprecipitation analysis. HEK293T and […] (ATCC, Manassas, Va.) cell maintenance and transfection methods have been described previously (Xu et al., supra). Preparation and transfection of cultured hippocampal neurons were described previously (Rumbaugh et al., J Neurosci 23:4567-76, 2003). Western blot analysis of homogenates of HEK293T cells, cultured neurons, and brain extracts was performed as described previously (Xu et al., supra). Co-IP analysis to measure interaction between NPR and AMPAR was performed as described (Xu et al., supra).
Ab LFC-NPR was used to examine the possibility that mGluR1/5 might regulate cleavage of NPR. mGluR1/5 activates PKC via phospholipase C and the production of diacylglycerol (DAG) and inositol triphosphate (IP3) that releases intracellular Ca^2+. […] Ab LFC-NPR detected a ˜60 kDa band from lysates that increased in intensity (expressed as a percent control) over time after stimulation with DHPG. No specific band was detected in the medium by Ab LFC-NPR or other NPR Abs. Absence of LFC-NPR in the medium of neurons was consistent with the observation that both Narp and NP1 were absent from medium even though they are secreted proteins detected on the cell surface using live labeling methods. […]

Experiment [3] relates to Schaffer collateral-CA1 synapse. Nature of the experiment: mGluR1/5-dependent LTD in hippocampal slices (field EPSP recording). The class given is cell-based, mouse. The note with it: for fEPSP slope after DHPG-induced LTD: control mouse slices, t=75 min, DHPG 50 μM for 5 min, TAPI-2 50 μM for 20 min starting 15 min before DHPG. The protocol:
mGluR1/5-dependent LTD in hippocampus. Hippocampal slices from postnatal day 21 to 28 mice were prepared as previously described (Huber et al., Science 288:1254-[…]). […] Transverse slices (400 μm thick) were cut on a Vibratome 3000 (The Vibratome company). Slices were transferred to a reservoir chamber filled with a normal aCSF which comprised (in mM): 124 mM NaCl, 2.5 mM KCl, 1.3 mM MgCl2, 2.5 mM CaCl2, 1 mM NaH2PO4, 26.2 mM NaHCO3, and 20 D-glucose. Slices were allowed to recover for 2-6 hr at room temperature (22-24° C.). For recording, slices were transferred to an interface type chamber, maintained at 32° C. for 1 hr, and perfused continuously with aCSF at a rate of 2.5 mL/min. Standard methods were used to record field EPSPs (fEPSPs) from the stratum radiatum in response to stimulation of the Schaffer collateral-commissural pathway with a concentric bipolar tungsten electrode (FHC, Bowdoin, Me.). The stimulus intensity was adjusted to elicit 50-60% of the maximal response. Evoked responses were stored on-line and analyzed off-line using Clampfit (Ver. 9.2). […] The strength of the synaptic response was measured as the fEPFP slope. […] LTD was expressed as percentage of the fEPSP slope during the baseline recording. All data shown for the time course are mean±SEM.

The mark [4] stands for this setting: TAPI-2 = pretreatment before DHPG.
Setting [5] is: cultured cortical neurons, 45 min after DHPG treatment, TAPI-2 = pretreatment before DHPG.

Each structure is given as a SMILES string.

For the molecule `N[C@H](C(=O)O)c1cc(O)cc(O)c1` [DHPG, (S)-3,5-dihydroxyphenylglycine], in experiment [1] (setting [4]), the “surface LFC-NPR” value is given as 84.3±7.2 % of vehicle control. The “surface GluR1” value in experiment [1] (setting [5]) is 74.1±2.2 % of vehicle control; in experiment [1] (neurons cultured from NP TKO mouse cortex, after DHPG), 98.4±9.7 % of vehicle control; in experiment [1] (neurons cultured from control mouse cortex, 45 min after DHPG), 46.3±8.3 % of vehicle control. Further, the “increase of LFC-NPR levels in lysates” value in experiment [2] (90 minutes after stimulation with 50 μM DHPG for 5 minutes, cultured cortical neurons ~DIV 14) was 60.7%±2.5%. Further, the “fEPSP slope after DHPG-induced LTD” value in experiment [3] was 74.0±3.3 % of baseline. Besides, the “DHPG-induced LTD (fEPSP slope)” value worked out at 85.9±4.1% in experiment [3] (slices from NP TKO mice, n=9); 96.3±2.5% in experiment [3] (slices from NPR KO mice, n=7); 68.6±3.7% in experiment [3] (slices from wild-type mice, n=13).

On to `CC(C)C[C@H](CC(=O)NO)C(=O)N[C@H](C(=O)N[C@@H](C)C(=O)NCCN)C(C)(C)C` [TAPI-2], for which the “surface LFC-NPR” value in experiment [1] (setting [4]) was 108.9±16.0 % of vehicle control. The “surface GluR1” value in experiment [1] (setting [5]) is listed as 102.4±4.9 % of vehicle control. For the same molecule, the “DHPG-stimulated increase in LFC-NPR” value in experiment [2] (pretreatment of cultured neurons with TAPI-2) is listed as “blocked”. Also, in experiment [3] (TAPI-2 50 μM), the “initial, phasic EPSP depression during DHPG treatment” value was “no effect”. For the same molecule, in experiment [3] (TAPI-2 50 μM for 20 min), the “basal fEPSP slope or probability of release as indexed by paired pulse ratio (PPR)” value is “did not alter”. Also, the “fEPSP slope after DHPG-induced LTD” value in experiment [3] is given as 93.8±2.5 % of baseline. Besides, the “PP-1 Hz induced LTD (fEPSP slope)” value in experiment [3] (control slices pretreated with TAPI-2 50 μM, t=50 min, n=4) is 101.8±5.6 % of baseline.
